Data published in patent EP0223671A1, “Medicament with a synergistic anti-inflammatory effect on the basis of a corticosteroid and a beta-agonist” (CENTRE INTERNATIONAL DE RECHERCHES DERMATOLOGIQUES GALDERMA …, priority 1985, dated 1987).
Structures can show the parent of a compound that is named as a salt. Marks after values point to notes of the source that are not given here.

Experiments:
[1] = system: oedème de l'oreille induit par l'huile de croton; assay: Croton oil-induced ear oedema test in the rat; format: in vivo; conditions: inhibition of oedema vs control animals, topical on right ear 1 h before croton oil, read 6 h after, hydro-ethanolic gel vehicle
Description: On applique de façon normalisée sur les faces interne et externe de l'oreille droite de rats une solution d'huile de croton ayant la composition suivante: • - pyridine : 4ml • - oxyde de diéthyle: 13ml • - huile de croton^*: 2ml • - eau qsp 20ml ^* SIGMA réf. C4755
Les animaux traités reçoivent, une heure avant l'application de l'huile de croton, une application sur l'oreille droite par voie topique, du produit étudié dans le véhicule suivant (placebo):gel hydroéthanolique à 2X d'hydroxypropyl cellulose (KLUCEL HF); (proportion eau-éthanol : 80/20).
Les animaux témoins ne reçoivent que l'application d'huile de croton.
Six heures après l'application d'huile de croton, on évalue l'importance de l'oedème par comparaison de l'oreille droite et de l'oreille gauche. On calcule ensuite l'inhibition de l'oedème, en pourcentage, par rapport aux animaux témoins.

érythème induit par UVB = assay: UVB-induced erythema test in the guinea pig; format: in vivo, cobaye; conditions: dose 5 % p/v, 100 microlitres per site, topical 1 h after irradiation; vs animals given vehicle alone
Description: Les flancs des cobayes sont rasés à la tondeuse 24 heures avant l'expérience. On soumet les animaux à une irradiation à l'aide d'une lampe à vapeur de mercure. On irradie pendant 30 secondes deux sites de diamètre 1,5cm sur chaque flanc. Une heure après l'irradiation, on applique par voie topique le produit étudié sur chaque site irradié d'un seul flanc. Les observations de l'érythème sont faites 2h, 3,5h, 5h et 24h après l'application du produit. L'érythème est évalué selon une échelle de 0 à 5.
Les produits sont appliqués dans le véhicule suivant: • N,N-diméthylacétamide: 20ml • acétone : 40ml • éthanol : 40ml
On applique un volume de 100 microlitres par site.
On évalue l'importance de l'érythème en comparant les flancs droit et gauche. On calcule ensuite l'inhibition de l'érythème, en pourcentage, par rapport aux animaux témoins ayant reçu une application du véhicule seul.

SMILES | POURCENTAGE D'INHIBITION ([1]; dose 0.5 % p/v) | POURCENTAGE D'INHIBITION DE L'ERYTHEME 5 HEURES APRES APPLICATION (érythème induit par UVB) | POURCENTAGE D'INHIBITION ([1]; dose 0.1 % p/v) | also measured
CC(C)(C)NCC(O)c1ccc(O)c(CO)c1 (stereo not shown) [SALBUTAMOL SULFATE, 2-(tert-butylamino)-1-(4-hydroxy-3-hydroxyphényl)éthanol] | 14% | – | – | –
C[C@]12CCC(=O)C=C1CC[C@@H]1[C@@H]2[C@@H](O)C[C@@]2(C)[C@H]1CC[C@]2(O)C(=O)CO [HYDROCORTISONE, Hydrocortisone] | – | 3 NS % | 14% | –
CC(C)(C)NCC(O)c1ccc(O)c(CO)c1 (stereo not shown) [SALBUTAMOL, 2-(tert-butylamino)-1-(4-hydroxy-3-hydroxyphényl)éthanol] | – | 14 * % | – | –
CCCC(=O)O[C@]1(C(=O)CO)CC[C@H]2[C@@H]3CCC4=CC(=O)CC[C@]4(C)[C@H]3[C@@H](O)C[C@@]21C [HYDROCORTISONE 17 BUTYRATE, Hydrocortisone-17 butyrate] | – | – | 30% | –
CC(C)NCC(O)COc1cccc2ccccc12 (stereo not shown) [PROPRANOLOL] | – | – | – | P[…]'INHIBITION ([1]; dose 0.5 % p/v): 5%
CC(C)(C)NCC(O)c1cc(O)cc(O)c1 (stereo not shown) [TERBUTALINE SULFATE, 1-(3,5-dihydroxyphényl)-2-(tert-butylamino)éthanol] | 12% | – | – | –
